Experimental data taken from paper PMC12597212, “Biaryl Phosphate‐Based Inhibitors of the Transcription Factor STAT4” (Chemmedchem, 2025).

Tests used:
Format in all cases: binding
[1] = molecular target: T1, STAT5b (Homo sapiens, UniProt P51692); assay: Competitive fluorescence polarization (FP) assay, STAT5b; details: for inhibition at 100 µM: compound at 100 µM; for IC50: 59-85 nM STAT5b, 10 nM tracer peptide; for Ki: Ki calculated from IC50, mean ± SD, n = 3
T1 sequence (P51692 1-787): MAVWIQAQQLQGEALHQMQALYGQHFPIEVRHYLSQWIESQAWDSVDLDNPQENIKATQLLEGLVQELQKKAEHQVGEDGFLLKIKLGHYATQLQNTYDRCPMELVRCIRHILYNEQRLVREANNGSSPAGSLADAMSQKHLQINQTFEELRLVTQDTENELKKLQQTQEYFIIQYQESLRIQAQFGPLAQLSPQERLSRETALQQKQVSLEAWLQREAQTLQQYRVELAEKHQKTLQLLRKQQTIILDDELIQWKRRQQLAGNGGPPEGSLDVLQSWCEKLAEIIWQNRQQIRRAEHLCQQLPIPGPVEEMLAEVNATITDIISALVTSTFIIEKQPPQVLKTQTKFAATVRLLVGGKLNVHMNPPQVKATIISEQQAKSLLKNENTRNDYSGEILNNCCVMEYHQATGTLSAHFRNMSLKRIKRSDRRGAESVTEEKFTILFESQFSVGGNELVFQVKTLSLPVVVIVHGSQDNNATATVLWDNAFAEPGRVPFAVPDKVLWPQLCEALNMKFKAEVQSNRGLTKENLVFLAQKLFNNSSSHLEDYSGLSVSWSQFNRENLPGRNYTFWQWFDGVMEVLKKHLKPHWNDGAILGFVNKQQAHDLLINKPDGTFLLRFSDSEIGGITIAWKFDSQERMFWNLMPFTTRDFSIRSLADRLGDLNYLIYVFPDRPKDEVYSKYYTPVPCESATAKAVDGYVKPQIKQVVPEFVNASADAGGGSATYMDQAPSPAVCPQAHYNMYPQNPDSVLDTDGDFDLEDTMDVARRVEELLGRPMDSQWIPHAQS
Method: (§1) Fluorescence polarization assays
(§2) STAT4; 5-carboxyfluorescein-GpYDKPHVL for STAT1; 5-carboxyfluorescein-GpYLPQTV- […]
(§3) fluorescent-labeled peptide was added. Samples were transferred to 384-well microtiter plates […]
(§4) Experiments were carried out in triplicate. Percent binding was calculated based on a logarithmic curve fit using OriginPro 8G software. Conversion of IC50 values to Ki-values was […]
(§5) Error bars represent standard deviations. […]
(§6) Experiments were carried out in triplicate. […]

[2] = molecular target: T2, STAT4 SH2 domain (Homo sapiens, UniProt Q14765); assay: Competitive fluorescence polarization (FP) assay, STAT4; details: for IC50: 28 nM STAT4, 10 nM tracer peptide; for Ki: Ki calculated from IC50, mean ± SD, n = 3
T2 sequence (Q14765 1-748): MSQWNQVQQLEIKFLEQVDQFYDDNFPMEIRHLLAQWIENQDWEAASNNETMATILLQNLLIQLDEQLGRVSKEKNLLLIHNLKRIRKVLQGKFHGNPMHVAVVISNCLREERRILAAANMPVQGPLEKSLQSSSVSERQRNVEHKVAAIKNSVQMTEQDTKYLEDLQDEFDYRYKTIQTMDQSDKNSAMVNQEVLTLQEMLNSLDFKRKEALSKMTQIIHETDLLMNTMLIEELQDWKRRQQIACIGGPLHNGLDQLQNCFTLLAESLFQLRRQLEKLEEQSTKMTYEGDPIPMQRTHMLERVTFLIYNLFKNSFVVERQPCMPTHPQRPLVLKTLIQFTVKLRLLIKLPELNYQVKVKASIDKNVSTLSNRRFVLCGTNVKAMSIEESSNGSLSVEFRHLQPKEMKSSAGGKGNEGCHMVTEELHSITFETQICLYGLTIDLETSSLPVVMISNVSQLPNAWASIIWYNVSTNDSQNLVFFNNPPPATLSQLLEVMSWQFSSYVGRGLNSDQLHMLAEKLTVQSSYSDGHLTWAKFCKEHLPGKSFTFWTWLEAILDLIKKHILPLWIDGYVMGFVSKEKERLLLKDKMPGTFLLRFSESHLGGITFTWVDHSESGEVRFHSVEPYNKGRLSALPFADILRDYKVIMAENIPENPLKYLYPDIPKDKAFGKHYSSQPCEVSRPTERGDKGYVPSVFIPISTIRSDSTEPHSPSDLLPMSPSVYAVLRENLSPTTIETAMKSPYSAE
Method: as §1
Competitive fluorescence polarization assays were carried as previously described.[1] Proteins […]
fluorescent-labeled peptides were used as tracers: 5-carboxyfluorescein-GpYLPQNID-OH for STAT4; 5-carboxyfluorescein-GpYDKPHVL for STAT1; 5-carboxyfluorescein-GpYLPQTV-NH2 for STAT3; 5-carboxyfluorescein-GpYLVLDKW for STAT5a/b, and 5-carboxyfluorescein- […]
mM Tris (pH 8.0), 50 mM NaCl, 1 mM EDTA, 1 mM DTT, 0.1 % Nonidet P-40 substitute, 2 %
DMSO. Proteins and test compound were incubated for 1 h at room temperature before the […]
(1 picture or pasted object on this page, not shown here) […]
fluorescent-labeled peptide was added. Samples were transferred to 384-well microtiter plates and fluorescence polarization was read after an additional 60 min of incubation time.
Experiments were carried out in triplicate. Percent binding was calculated based on a logarithmic curve fit using OriginPro 8G software. Conversion of IC50 values to Ki-values was achieved using the published equation[2] embedded in the corresponding Excel spread sheet […]
https://websites.umich.edu/~shaomengwanglab/software/calc_ki/ind ex.html.
as §5, §6

[3] = molecular target: T3, STAT5a (Homo sapiens, UniProt P42229); assay: Competitive fluorescence polarization (FP) assay, STAT5a; details: for IC50: 125-177 nM STAT5a, 10 nM tracer peptide; for Ki: Ki calculated from IC50, mean ± SD, n = 3
T3 sequence (P42229 1-794): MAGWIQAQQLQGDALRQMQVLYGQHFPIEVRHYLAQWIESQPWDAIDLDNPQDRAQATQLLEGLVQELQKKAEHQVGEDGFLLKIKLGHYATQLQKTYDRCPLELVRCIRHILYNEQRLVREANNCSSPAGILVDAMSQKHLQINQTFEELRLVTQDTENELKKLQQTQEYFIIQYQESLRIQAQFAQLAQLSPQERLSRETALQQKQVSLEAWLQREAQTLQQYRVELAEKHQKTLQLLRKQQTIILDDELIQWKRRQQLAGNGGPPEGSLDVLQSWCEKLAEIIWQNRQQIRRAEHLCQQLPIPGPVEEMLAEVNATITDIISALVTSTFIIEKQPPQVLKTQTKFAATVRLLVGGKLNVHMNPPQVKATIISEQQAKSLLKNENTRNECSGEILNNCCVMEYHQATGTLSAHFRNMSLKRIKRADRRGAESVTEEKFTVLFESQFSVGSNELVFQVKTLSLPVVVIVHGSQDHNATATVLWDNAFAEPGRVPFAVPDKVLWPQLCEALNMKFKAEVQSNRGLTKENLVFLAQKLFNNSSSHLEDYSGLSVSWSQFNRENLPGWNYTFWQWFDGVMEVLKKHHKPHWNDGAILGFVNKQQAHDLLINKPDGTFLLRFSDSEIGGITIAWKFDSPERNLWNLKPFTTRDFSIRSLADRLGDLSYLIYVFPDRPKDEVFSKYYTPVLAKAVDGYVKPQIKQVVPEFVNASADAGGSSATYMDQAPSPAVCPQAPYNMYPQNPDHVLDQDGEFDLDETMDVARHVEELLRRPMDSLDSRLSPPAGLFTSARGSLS
Method: as §1, §2, §3, §4, §5, §6

SMILES	inhibition at 100 µM [1] [%]	IC50 [2] [µM]	Ki [2] [µM]	IC50 [3] [µM]	Ki [3] [µM]	IC50 [1] [µM]	Ki [1] [µM]	inhibition at 200 µM ([1]; compound at 200 µM) [%]
O=P(O)(O)Oc1ccc2c(c1)oc1ccccc12 [compound 12]	49 ± 1	1.78	0.71 ± 0.08	55	27 ± 1			
O=P(O)(O)Oc1ccc2c(c1)Cc1ccccc1-2 [compound 11]		1.52	0.61 ± 0.03	43	21 ± 1	101	49 ± 6	
O=P(O)(O)Oc1ccc(-c2nccs2)cc1 [8c]	26 ± 2	8.8	4.1 ± 0.2	122	61 ± 3			45 ± 1
O=P(O)(O)Oc1ccc(-c2cccs2)cc1 [8b]		1.09	0.5 ± 0.03	14.8	7.3 ± 0.9	16.8	8.2 ± 0.4	
Cc1cc(-c2ccc(OP(=O)(O)O)c(F)c2)cs1 [8f]		0.37	0.18 ± 0.03	28	14 ± 1	36	18 ± 1	
O=P(O)(O)Oc1ccc(-c2ccsc2)cc1 [8a]		1.2	0.56 ± 0.06	41	20 ± 0.2	47	23 ± 1	
